Test results: patent publication US20250319053A1, “INHIBITORS OF THE PEPTIDYL-PROLYL CIS/TRANS ISOMERASE (PIN1), COMBINATIONS AND USES THEREOF” (DANA-FARBER CANCER INSTITUTE, INC., priority 2021, published 2025)

Legend:
[1] = tested on: human PDAC cells (PDAC1 and PDAC2); assay: Cell proliferation assay (CellTiter-Glo) in PDAC cells; format: cell-based; details: PDAC cells, 72 hrs
Experimental: Cells were seeded at a density of 5000 cells (PDAC1 and PDAC2), or 3000 cells (CAF1 and CAF2) per well in 96-well flat-bottomed plates and incubated for 24 h in culture medium. […] Control cells received dimethyl sulfoxide (DMSO) at a concentration equal to that of drug-treated cells for 72 hours. The cell viability was determined by CellTiter-Glo® 2.0 Assay (Promega) following the manufacturer's instructions.

[2] = biological target: Pin1 (Homo sapiens, UniProt Q13526); assay: Immunoblotting for Pin1 and substrate oncoproteins in PDAC cells; format: cell-based; set-up: endogenous in cells; host or cells: primary human patient-derived PDAC cells (PDAC1, PDAC2); details: 72 hrs
Experimental: Cultured cells were lysed in RIPA buffer (50 mM Tris-HCl, pH 7.2, 150 mM NaCl, 1% NP40, 0.1% sodium dodecyl sulfate (SDS), 0.25% Na-deoxycholate) with freshly added phosphatase inhibitors containing 5 mM NaF and 0.2 mM sodium orthovanadate (NA3VO4), and proteinase inhibitors containing 2 μg/mL Aprotinin, 2 μg/mL Leupeptin, 2 μg/mL Pepstatin A, 1 mM DTT (dithiothreitol), 0.5 mM 4-(2-aminoethyl)-benzenesulfonyl fluoride (AEBSF), and 20 mM Chymotrypsin, and then mixed with the SDS sample buffer and loaded onto a gel after boiling for 10 minutes at 95° C. The proteins were resolved by polyacrylamide gel electrophoresis and transferred to PVDF membrane. The transferred membrane was washed three times with Tris-buffered saline containing 0.1% Tween 20 (TBST). After blocking with TBST containing 5% milk or 3% bovine serum albumin (BSA) for 1 h room temperature, the membrane was incubated with the appropriate primary antibody (diluted 1:500-1:10000) in 5% milk or 3% BSA-containing TBST at 4° C. overnight. After incubation with the primary antibody, the membrane was washed three times with TBST for a total of 30 min followed by incubation with horseradish peroxidase conjugated goat anti-rabbit or anti-mouse IgG (diluted 1:5000) for 1 h at room temperature. After three extensive washes with TBST for a total of 30 min, the immunoblots were visualized by enhanced chemi-luminescence. Immunoblotting results were quantified using ImageJ (NIH).

[3] = in humans; cited from earlier work

Sequence of Pin1 (Q13526 whole entry): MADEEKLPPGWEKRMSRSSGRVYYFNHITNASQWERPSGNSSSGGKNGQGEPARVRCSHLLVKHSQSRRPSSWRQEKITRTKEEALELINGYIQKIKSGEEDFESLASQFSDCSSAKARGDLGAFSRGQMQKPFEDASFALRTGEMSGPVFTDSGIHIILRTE

Compound | cell growth (proliferation assay) [1] | Pin1 and its substrate oncoproteins (IB) [2] | half-life [3] [min]
arsenic trioxide [ATO, reference compound] | dose-dependently suppress cell growth | ablate Pin1 | –
CC1=C(/C=C/C(C)=C/C=C/C(C)=C/C(=O)O)C(C)(C)CCC1 [ATRA, all-trans retinoic acid] | dose-dependently suppress cell growth | ablate Pin1 | ~45
